Experimental findings from patent US11845935B2, “Regulation of MIR-143 using nucleic acid molecules” (CHILDREN'S HOSPITAL MEDICAL CENTER, priority 2017, dated 2023) are described below.

Assay [1] has as its target T1, M6PR (Homo sapiens, UniProt P11717).
T1 construct: endogenous in cells; host or cells: HUVEC (parental, or transduced with LV-143Spg / control LV)
In words: M6P competition of IDUA-myc uptake in HUVEC. The format is cell-based.

For assay [2], the target named is T1, M6PR. Briefly: M6P competition of IDUA-myc uptake in hCMEC/D3 cells. Conditions: 1 h exposure to IDUA-myc conditioned medium (~20,000 U/mL), read-out: Median inhibitory concentration (IC50) of IDUA-myc uptake. It counts as cell-based.

T1 sequence (P11717 41-2491): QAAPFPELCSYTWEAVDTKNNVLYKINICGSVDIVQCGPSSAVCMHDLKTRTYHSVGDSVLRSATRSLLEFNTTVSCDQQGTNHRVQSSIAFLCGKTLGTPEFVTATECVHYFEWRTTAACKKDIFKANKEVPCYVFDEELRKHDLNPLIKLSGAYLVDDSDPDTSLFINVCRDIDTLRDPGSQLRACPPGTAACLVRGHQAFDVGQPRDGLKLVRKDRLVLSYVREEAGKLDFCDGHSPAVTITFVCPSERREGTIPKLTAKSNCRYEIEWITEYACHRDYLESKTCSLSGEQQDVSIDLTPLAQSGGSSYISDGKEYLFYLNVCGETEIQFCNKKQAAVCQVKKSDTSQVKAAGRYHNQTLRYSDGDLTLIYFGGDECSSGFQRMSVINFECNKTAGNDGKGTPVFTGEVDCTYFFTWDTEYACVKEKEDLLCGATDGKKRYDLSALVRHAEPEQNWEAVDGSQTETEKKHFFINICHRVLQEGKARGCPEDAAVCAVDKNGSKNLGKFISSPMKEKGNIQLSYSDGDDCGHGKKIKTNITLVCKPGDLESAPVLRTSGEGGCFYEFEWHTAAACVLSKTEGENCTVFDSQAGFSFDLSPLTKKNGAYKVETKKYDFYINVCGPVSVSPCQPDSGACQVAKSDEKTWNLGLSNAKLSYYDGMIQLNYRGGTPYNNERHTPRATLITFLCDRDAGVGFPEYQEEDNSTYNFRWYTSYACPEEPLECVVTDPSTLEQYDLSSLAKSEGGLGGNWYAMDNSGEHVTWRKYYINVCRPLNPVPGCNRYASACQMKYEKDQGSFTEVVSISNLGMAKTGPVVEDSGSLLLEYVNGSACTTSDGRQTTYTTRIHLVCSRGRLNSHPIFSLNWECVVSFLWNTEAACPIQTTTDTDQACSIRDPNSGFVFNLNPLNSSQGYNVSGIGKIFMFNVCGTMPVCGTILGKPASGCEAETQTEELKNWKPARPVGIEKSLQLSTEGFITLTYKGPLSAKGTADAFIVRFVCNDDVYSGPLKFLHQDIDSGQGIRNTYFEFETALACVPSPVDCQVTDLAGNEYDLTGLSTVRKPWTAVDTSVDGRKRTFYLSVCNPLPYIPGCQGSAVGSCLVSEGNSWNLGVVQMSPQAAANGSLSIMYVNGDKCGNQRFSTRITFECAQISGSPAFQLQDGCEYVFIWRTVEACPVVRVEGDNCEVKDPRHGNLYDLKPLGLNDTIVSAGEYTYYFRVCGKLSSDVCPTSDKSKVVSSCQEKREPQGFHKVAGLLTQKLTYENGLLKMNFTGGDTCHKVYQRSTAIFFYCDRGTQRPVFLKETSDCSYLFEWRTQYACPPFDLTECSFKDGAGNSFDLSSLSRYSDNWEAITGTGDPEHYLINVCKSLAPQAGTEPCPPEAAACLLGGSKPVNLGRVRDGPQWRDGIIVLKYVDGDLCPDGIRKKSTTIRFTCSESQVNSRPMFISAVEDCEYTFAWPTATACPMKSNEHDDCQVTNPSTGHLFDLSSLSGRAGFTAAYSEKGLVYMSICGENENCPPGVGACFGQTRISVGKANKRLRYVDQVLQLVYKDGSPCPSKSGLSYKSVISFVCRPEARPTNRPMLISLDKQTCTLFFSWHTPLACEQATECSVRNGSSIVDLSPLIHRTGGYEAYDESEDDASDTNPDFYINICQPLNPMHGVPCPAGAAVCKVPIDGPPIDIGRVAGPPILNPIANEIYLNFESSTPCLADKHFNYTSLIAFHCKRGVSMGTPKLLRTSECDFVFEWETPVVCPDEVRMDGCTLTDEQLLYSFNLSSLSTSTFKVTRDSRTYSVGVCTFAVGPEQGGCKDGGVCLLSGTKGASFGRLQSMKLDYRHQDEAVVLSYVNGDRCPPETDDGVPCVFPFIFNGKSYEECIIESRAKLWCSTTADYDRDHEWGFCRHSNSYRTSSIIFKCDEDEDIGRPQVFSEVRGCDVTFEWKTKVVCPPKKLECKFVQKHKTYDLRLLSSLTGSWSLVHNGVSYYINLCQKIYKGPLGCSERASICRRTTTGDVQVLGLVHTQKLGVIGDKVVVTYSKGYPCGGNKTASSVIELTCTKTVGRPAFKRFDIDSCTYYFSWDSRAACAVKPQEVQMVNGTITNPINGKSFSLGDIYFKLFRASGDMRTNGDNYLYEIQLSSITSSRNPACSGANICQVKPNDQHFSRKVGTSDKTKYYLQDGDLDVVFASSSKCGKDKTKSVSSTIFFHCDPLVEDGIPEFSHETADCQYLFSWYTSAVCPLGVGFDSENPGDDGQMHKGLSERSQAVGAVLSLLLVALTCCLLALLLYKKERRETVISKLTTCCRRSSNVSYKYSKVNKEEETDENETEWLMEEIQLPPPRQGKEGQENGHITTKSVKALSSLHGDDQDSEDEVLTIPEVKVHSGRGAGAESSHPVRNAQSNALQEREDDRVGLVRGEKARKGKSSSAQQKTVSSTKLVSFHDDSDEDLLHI

Take `O=C[C@@H](O)[C@@H](O)[C@H](O)[C@H](O)COP(=O)(O)O` [M6P inhibitor, mannose 6-phosphate]: the IC50 came out at 347 µM at M6PR [1] (1 h exposure to IDUA-myc conditioned medium (~20,000 U/mL), read-out: Median inhibitory concentration (IC50) of IDUA-myc uptake) and 57.2 µM at M6PR [2]. Also, at M6PR [1] (residual uptake under M6P competition), the “M6PR-independent uptake (plateau)” value is roughly 18%.
